Data as given in ChEMBL document CHEMBL1212841, “Mycenaaurin A, an antibacterial polyene pigment from the fruiting bodies of Mycena aurantiomarginata” (2010).

Test system: Bacillus pumilus
Experiment: Antimicrobial activity Bacillus pumilus at 0.5 umol/disk by disk diffusion method
Assay type: functional

Q: For `CC(=O)N[C@@H](CCO[C@H](C)C/C=C/CC[C@@H](O)C/C=C/C=C/C=C/C=C/C=C/C=C/c1cc(O)c(CC[C@H](N)C(=O)O)c(=O)o1)C(=O)O` [MYCENAAURIN A], which “inhibition zone (IZ)” value is on record?
A: 2.5 cm
